From PubChem BioAssay AID248 (DTP/NCI, 2004)
Several values for one entry are separate records, joined by “and”; a condition that tells them apart may be missing. Identical values can stand only once. Toxic doses and inconclusive results are not listed. No stated cut-off is given here; in the data, active means T/C of 150% or more; inactive means T/C below 125%.

Tested on: L1210 leukemia ip in BDF1 mice, survival T/C
Test: NCI In Vivo Anticancer Drug Screen. Data for tumor model L1210 Leukemia (intraperitoneal) in B6D2F1 (BDF1) mice
Conditions: endpoint: mean survival time, higher = longer survival
Procedure, shortened: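 Tumor cells were implanted, animals were treated, and survival was followed. The result divides the treated measurement by the vehicle-control measurement.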

[1] = dose: 100.0 mg/kg/injection, schedule: Q04DX002 (ip), vehicle: saline with Tween-80
[2] = dose: 200.0 mg/kg/injection, schedule: Q04DX002 (ip), vehicle: saline with Tween-80
[3] = dose: 400.0 mg/kg/injection, schedule: Q04DX002 (ip), vehicle: saline with Tween-80
[4] = dose: 100.0 mg/kg/injection, schedule: Q04DX003 (ip), vehicle: saline
[5] = dose: 200.0 mg/kg/injection, schedule: Q04DX003 (ip), vehicle: saline
[6] = dose: 400.0 mg/kg/injection, schedule: Q04DX003 (ip), vehicle: saline
[7] = dose: 50.0 mg/kg/injection, schedule: Q01DX001 (ip), vehicle: saline
[8] = dose: 100.0 mg/kg/injection, schedule: Q01DX001 (ip), vehicle: saline
[9] = dose: 100.0 mg/kg/injection, schedule: Q04DX003 (ip), vehicle: saline with Tween-80
[10] = dose: 200.0 mg/kg/injection, schedule: Q04DX003 (ip), vehicle: saline with Tween-80
[11] = dose: 400.0 mg/kg/injection, schedule: Q04DX003 (ip), vehicle: saline with Tween-80
[12] = dose: 100.0 mg/kg/injection, schedule: Q01DX001 (ip), vehicle: saline with Tween-80
[13] = dose: 100.0 mg/kg/injection, schedule: Q01DX009 (ip), vehicle: saline with Tween-80
[14] = dose: 200.0 mg/kg/injection, schedule: Q01DX001 (ip), vehicle: saline with Tween-80
[15] = dose: 200.0 mg/kg/injection, schedule: Q01DX009 (ip), vehicle: saline with Tween-80
[16] = dose: 400.0 mg/kg/injection, schedule: Q01DX001 (ip), vehicle: saline with Tween-80
[17] = dose: 400.0 mg/kg/injection, schedule: Q01DX009 (ip), vehicle: saline with Tween-80

Measured: T/C

CC(C)(C)c1ccc(/C=[N+](\[O-])C(C)(C)C)c(C(C)(C)C)c1O
inactive: dose: 50.0 mg/kg/injection, schedule: Q04DX002 (ip), vehicle: saline with Tween-80 102 % of control | [1] 98 % of control | [2] 102 % of control | [3] 95 % of control

N/C(=N\N=C\c1cccc2ccccc12)N/N=C/c1cccc2ccccc12
inactive: dose: 15.0 mg/kg/injection, schedule: Q01DX Z (ip), vehicle: methylcellulose (MC) 101 % of control | dose: 30.0 mg/kg/injection, schedule: Q01DX Z (ip), vehicle: methylcellulose (MC) 89 % of control | dose: 60.0 mg/kg/injection, schedule: Q01DX Z (ip), vehicle: methylcellulose (MC) 102 % of control | dose: 60.0 mg/kg/injection, schedule: Q01DX Z (oral), vehicle: methylcellulose (MC) 87 % of control | dose: 120.0 mg/kg/injection, schedule: Q01DX Z (ip), vehicle: methylcellulose (MC) 97 % of control | dose: 120.0 mg/kg/injection, schedule: Q01DX Z (oral), vehicle: methylcellulose (MC) 110 % of control | dose: 180.0 mg/kg/injection, schedule: Q01DX Z (oral), vehicle: methylcellulose (MC) 101 % of control | dose: 240.0 mg/kg/injection, schedule: Q01DX Z (ip), vehicle: methylcellulose (MC) 97 % of control | dose: 240.0 mg/kg/injection, schedule: Q01DX Z (oral), vehicle: methylcellulose (MC) 102 % of control | dose: 360.0 mg/kg/injection, schedule: Q01DX Z (ip), vehicle: methylcellulose (MC) 91 % of control | dose: 360.0 mg/kg/injection, schedule: Q01DX Z (oral), vehicle: methylcellulose (MC) 96 % of control | dose: 480.0 mg/kg/injection, schedule: Q01DX Z (oral), vehicle: methylcellulose (MC) 93 % of control | dose: 540.0 mg/kg/injection, schedule: Q01DX Z (oral), vehicle: methylcellulose (MC) 96 % of control

COc1ccc(C(=O)CC(=O)c2ccc(OC)cc2)cc1
inactive: dose: 50.0 mg/kg/injection, schedule: Q01DX001 (ip), vehicle: carboxymethylcellulose (CMC) 92 % of control | dose: 100.0 mg/kg/injection, schedule: Q01DX001 (ip), vehicle: carboxymethylcellulose (CMC) 92 % of control | dose: 200.0 mg/kg/injection, schedule: Q01DX001 (ip), vehicle: carboxymethylcellulose (CMC) 108 % of control | dose: 400.0 mg/kg/injection, schedule: Q01DX001 (ip), vehicle: carboxymethylcellulose (CMC) 94 % of control

O=S(=O)(O)CCO
inactive: dose: 50.0 mg/kg/injection, schedule: Q01DX009 (ip), vehicle: saline 99 % of control | dose: 100.0 mg/kg/injection, schedule: Q01DX009 (ip), vehicle: saline 95 % of control | [4] 97 % of control | dose: 200.0 mg/kg/injection, schedule: Q01DX009 (ip), vehicle: saline 99 % of control | [5] 101 % of control | [6] 101 % of control

CC1CC(OC(=O)CCN2CC2)CC(C)(C)C1 (stereo not drawn)
inactive: dose: 2.5 mg/kg/injection, schedule: Q01DX009 (ip), vehicle: Klucel (hydroxypropylcellulose) (HPC) 98 % of control | dose: 5.0 mg/kg/injection, schedule: Q01DX009 (ip), vehicle: Klucel (hydroxypropylcellulose) (HPC) 101 % of control | dose: 20.0 mg/kg/injection, schedule: Q01DX009 (ip), vehicle: Klucel (hydroxypropylcellulose) (HPC) 113 % of control | dose: 20.0 mg/kg/injection, schedule: Q04DX003 (ip), vehicle: Klucel (hydroxypropylcellulose) (HPC) 101 % of control | dose: 40.0 mg/kg/injection, schedule: Q01DX009 (ip), vehicle: Klucel (hydroxypropylcellulose) (HPC) 107 % of control | dose: 40.0 mg/kg/injection, schedule: Q04DX003 (ip), vehicle: Klucel (hydroxypropylcellulose) (HPC) 97 % of control | dose: 80.0 mg/kg/injection, schedule: Q04DX003 (ip), vehicle: Klucel (hydroxypropylcellulose) (HPC) 106 % of control

CC(C)=CC1C(C(=O)OC2CCN(C)CC2)C1(C)C (stereo not drawn)
inactive: dose: 25.0 mg/kg/injection, schedule: Q01DX001 (ip), vehicle: saline 98 % of control | [7] 98 % of control | [8] 101 % of control and 107 % of control

CCOC(=O)c1cnc(SCC)nc1N
inactive: [4] 101 % of control | [5] 98 % of control | [6] 103 % of control

Cc1cccc(SC(=O)Nc2ccc(Cl)cc2C)c1
inactive: dose: 12.5 mg/kg/injection, schedule: Q01DX009 (ip), vehicle: saline with Tween-80 91 % of control | dose: 25.0 mg/kg/injection, schedule: Q01DX009 (ip), vehicle: saline with Tween-80 95 % of control | dose: 50.0 mg/kg/injection, schedule: Q01DX009 (ip), vehicle: saline with Tween-80 119 % of control

CCc1ccc(/C=C\c2ccc(O)c(O)c2)[n+](C)c1
inactive: dose: 15.0 mg/kg/injection, schedule: Q01DX001 (ip), vehicle: saline 87 % of control | dose: 30.0 mg/kg/injection, schedule: Q01DX001 (ip), vehicle: saline 89 % of control

CC1(CCC(=O)O)CCCCC1=O (stereo not drawn)
inactive: [4] 96 % of control | [5] 96 % of control | [6] 112 % of control

COc1c(NC(=O)c2ccc([N+](=O)[O-])cc2)cccc1[N+](=O)[O-]
inactive: dose: 100.0 mg/kg/injection, schedule: Q04DX002 (ip), vehicle: Klucel (hydroxypropylcellulose) (HPC) 89 % of control | dose: 200.0 mg/kg/injection, schedule: Q04DX002 (ip), vehicle: Klucel (hydroxypropylcellulose) (HPC) 95 % of control | dose: 400.0 mg/kg/injection, schedule: Q04DX002 (ip), vehicle: Klucel (hydroxypropylcellulose) (HPC) 89 % of control

O/N=C/Cc1ccccc1
inactive: dose: 100.0 mg/kg/injection, schedule: Q04DX002 (ip), vehicle: DMSO 103 % of control | dose: 200.0 mg/kg/injection, schedule: Q04DX002 (ip), vehicle: DMSO 123 % of control

O=C(O)Cc1ccc2c(c1)OCO2.[Ag]
inactive: dose: 9.38 mg/kg/injection, schedule: Q01DX001 (ip), vehicle: steriod suspending solution 95 % of control | dose: 18.75 mg/kg/injection, schedule: Q01DX001 (ip), vehicle: steriod suspending solution 94 % of control | dose: 37.5 mg/kg/injection, schedule: Q01DX001 (ip), vehicle: steriod suspending solution 92 % of control

COc1ccc(/C=N/NC(=O)c2ccccc2NC(=O)c2ccccc2Cl)cc1
inactive: dose: 50.0 mg/kg/injection, schedule: Q01DX009 (ip), vehicle: Klucel (hydroxypropylcellulose) (HPC) 91 % of control | dose: 100.0 mg/kg/injection, schedule: Q01DX009 (ip), vehicle: Klucel (hydroxypropylcellulose) (HPC) 107 % of control and 91 % of control | dose: 200.0 mg/kg/injection, schedule: Q01DX009 (ip), vehicle: Klucel (hydroxypropylcellulose) (HPC) 102 % of control | dose: 400.0 mg/kg/injection, schedule: Q01DX009 (ip), vehicle: Klucel (hydroxypropylcellulose) (HPC) 98 % of control and 91 % of control

Cc1cnc(Br)c(Br)c1
inactive: [9] 102 % of control | [10] 100 % of control | [11] 102 % of control

Cc1ccc(C(C)C)c(OC(=O)Nc2cc(Cl)ccc2C)c1
inactive: [12] 98 % of control | [13] 100 % of control and 102 % of control | [1] 87 % of control and 88 % of control | [4] 92 % of control | [14] 95 % of control | [15] 102 % of control and 113 % of control | [2] 102 % of control and 89 % of control | [5] 92 % of control | [16] 93 % of control | [17] 100 % of control and 89 % of control | [3] 89 % of control and 91 % of control | [6] 92 % of control

CSc1nncc(=O)[nH]1.[Hg]
inactive: dose: 5.0 mg/kg/injection, schedule: Q01DX001 (ip), vehicle: carboxymethylcellulose (CMC) 91 % of control | dose: 10.0 mg/kg/injection, schedule: Q01DX001 (ip), vehicle: carboxymethylcellulose (CMC) 102 % of control

NC(=O)C1CCC(C(N)=O)CC1 (stereo not drawn)
inactive: [12] 106 % of control | [13] 100 % of control | [9] 100 % of control | [14] 98 % of control | [15] 100 % of control | [10] 115 % of control | [16] 98 % of control | [17] 107 % of control | [11] 102 % of control

CCCCCCCCCCCCC/C=N/Nc1nnc(N/N=C/CCCCCCCCCCCCC)c2ccccc12
inactive: [7] 106 % of control | [8] 106 % of control | dose: 200.0 mg/kg/injection, schedule: Q01DX001 (ip), vehicle: saline 109 % of control | dose: 400.0 mg/kg/injection, schedule: Q01DX001 (ip), vehicle: saline 118 % of control

O=c1cc(CN(CCO)CCO)[nH]c(=O)[nH]1
inactive: [4] 93 % of control | [5] 95 % of control | [6] 93 % of control
